Assay results from patent US20250340529A1, “Heterocyclic Compounds as Immunomodulators of PD-L1 Interactions” (Ascletis BioScience Co., Ltd, priority 2021, published 2025).

How the values were obtained:
[1] = target: PD-1/PD-L1 (Homo sapiens (Human), UniProt Q9NZQ7); assay: PD-1/PD-L1 Homogeneous Time-Resolved Fluorescence (HTRF) binding assay; settings: 3 nM PD1, 10 nM PD-L1, 25° C., PBS pH 7.4
Description: PD-1/PD-L1 Homogeneous Time-Resolved Fluorescence (HTRF) Binding Assay
The assays were conducted in a standard black 384-well polystyrene plate with a final volume of 20 μL. Inhibitors were first serially diluted in DMSO and then added to the plate wells before the addition of other reaction components. The final concentration of DMSO in the assay was 1%. The assays were carried out at 25° C. in the PBS buffer (pH 7.4) with 0.05% Tween-20 and 0.1% BSA. Recombinant human PD-L1 protein (19-238) with a Histag at the C-terminus was purchased from AcroBiosystems (PD1-H5229). Recombinant human PD-1 protein (25-167) with Fe tag at the C-terminus was also purchased from AcroBiosystems (PD1-H5257). PD-L1 and PD-1 proteins were diluted in the assay buffer and 10 μL was added to the plate well. Plates were centrifuged and proteins were preincubated with inhibitors for 40 minutes. The incubation was followed by the addition of 10 μL of HTRF detection buffer supplemented with Europium cryptate-labeled anti-human IgG (PerkinElmer-AD0212) specific for Fe and anti-His antibody conjugated to SureLight®-Allophycocyanin (APC, PerkinElmer-AD0059H). After centrifugation, the plate was incubated at 25° C. for 60 min. before reading on a PHERAstar FS plate reader (665 nm/620 nm ratio). Final concentrations in the assay were—3 nM PD1, 10 nM PD-L1, 1 nM europium anti-human IgG and 20 nM anti-His-Allophycocyanin. IC50 determination was performed by fitting the curve of percent control activity versus the log of the inhibitor concentration.

[2] = target: PD-L1/CHO-K1 cells (Homo sapiens (Human), UniProt Q9NZQ7); assay: PD-L1 internalization (FACS, PD-L1/CHO-K1 cells); assay type: cell-based; settings: % activation of PD-L1 internalization = 1 − PD-L1 signal; 17 hours incubation
Description: Day 1. Seeding cells: Digest the PD-L1/CHO-K1 cells by trypsin in the flask, then counting the cell number and diluted to 1×10^5 cells/ml. Seeding cells to 6 well plate (Corning, #3516), 2 mL/well. The plates were incubated at 37° C., […] incubator for 24 hours.
Day 2. Preparing compounds and treated cells: Dilute GLC01-258 from 15 mM to 0.5 mM by using DMSO, and 15 mM compound were serial diluted from 15 mM˜15 nM by DMSO, Then 500 times dilute the compounds by using assay buffer. Prepare 0.2% DMSO in assay buffer used for Vehicle control and low control. Take out the plates, aspirated the medium and thrown away. Adding 2 mL of the diluted compounds, vehicle control and low control to corresponding wells. Then incubated the plates for 17 hours at 37° C., 5% CO2 incubator.
Day 3. Preparing samples for FACS: After 17 hours incubation, discarded medium and washed by the PBS. Cells in each well were Digested by trypsin. Centrifuge and discard the supernatant, then wash the cells by DPBS (Ca^2+, Mg^2+ free) for twice. 10 fold dilute the antibody (PE-conjugated mouse anti-human CD274) by DPBS, then adding the staining solution to compounds treated samples and vehicle control sample. The low control only add DPBS without antibody. Incubate the plates at room temperature for 20 minutes and protect from light. After 20 minutes, wash the samples by DPBS for twice. Then centrifuge and discard the supernatant. Resuspend cells by 300 uL DPBS and transfer the samples to 5 mL Polystryrene Round-Bottom Tube (Falcon, #352054), then tested by BD FACSCanto. […].
Set the PD-L1 signal of vehicle control as 100%, PD-L1 signal of Low control as 0%. Then calculate the compound treated samples' PD-L1 signal
0% PD-L1 signal: Low control which stained without anti-CD274
100% PD-L1 Signal: vehicle control which stained with anti-CD274
The % activation of PD-L1 Internalization=1−PD-L1 signal of compound.

[3] = target: extracellular domains of PD-L1 (Homo sapiens (Human), UniProt Q9NZQ7); assay: PD-L1 dimerization (biochemical protein-protein interaction assay); settings: PDL1-Eu and PDL1-A2, 25° C., 120 min
Description: Compounds were tested in biochemical protein-protein interaction assays to determine if they can specifically dimerize the extracellular domains of PD-L1. • (1) Dilute cpd 1:3 in succession in DMSO for each column for 10±0 pts (refer to dilution plate map) • (2) Transfer 0.2 μL cpds solution in each row to 384 assay plate using Echo, each column containing 2 replicates (refer to assay plate map). • (3) Add 20 μL prepared mixture include PDL1-Eu and PDL1-A2 solution to assay plate, centrifuge at 1000 rpm for 1 min. • (4) Incubate at 25° C. for 120 min. • (5) Read fluorescence signal on Envision 2104 plate reader. • (6) Read the Ratio (665 nm/615 nm) signal on Envision. • (7) Analyze the raw data using the equation (V. Data analysis)

extracellular domains of PD-L1, sequence (Q9NZQ7 19-238): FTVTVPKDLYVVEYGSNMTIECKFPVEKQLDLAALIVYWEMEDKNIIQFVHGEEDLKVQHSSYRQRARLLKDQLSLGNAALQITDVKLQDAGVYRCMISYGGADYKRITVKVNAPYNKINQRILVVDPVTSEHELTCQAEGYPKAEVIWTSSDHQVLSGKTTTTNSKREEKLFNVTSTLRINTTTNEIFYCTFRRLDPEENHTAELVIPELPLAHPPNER
PD-1/PD-L1, sequence (Q9NZQ7 19-238): as above
PD-L1/CHO-K1 cells, sequence (Q9NZQ7 19-290): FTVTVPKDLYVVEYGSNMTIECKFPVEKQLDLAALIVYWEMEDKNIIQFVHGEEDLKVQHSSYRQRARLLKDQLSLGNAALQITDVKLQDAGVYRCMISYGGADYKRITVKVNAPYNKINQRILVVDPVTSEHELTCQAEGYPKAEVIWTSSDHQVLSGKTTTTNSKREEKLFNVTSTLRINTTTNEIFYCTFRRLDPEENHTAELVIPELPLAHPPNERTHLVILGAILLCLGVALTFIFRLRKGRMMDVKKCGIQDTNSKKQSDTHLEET

## O=C1COc2cc(-c3cccc(-c4cccc(-c5ccc6c(c5)OCC(=O)N6C[C@@H]5CCCN5)c4Cl)c3Cl)ccc2N1C[C@@H]1CCCN1 [Compound 411, 7,7′-(2,2′-dichloro-[1,1′-biphenyl]-3,3′-diyl)bis(4-(((S)-pyrrolidin-2-yl)methyl)-2H-benzo[b][1,4]oxazin-3(4H)-one)]
[1]
  IC50: 6.14 nM
[2]
  Internalization: 66.90%
[3]
  EC50: 357 nM

## O=C(O)C[C@H](CO)NCCN1C(=O)COc2cc(-c3cccc(-c4cccc(-c5ccc6c(c5)OCC(=O)N6CCN[C@@H](CO)CC(=O)O)c4Cl)c3Cl)ccc21 [Compound 528]
[1]
  IC50: 5.04 nM
[2]
  Internalization: 13.30%
[3]
  EC50: 175 nM

## COC[C@H](NCCN1C(=O)COc2cc(-c3cccc(-c4cccc(-c5ccc6c(c5)OCC(=O)N6CCN[C@@H](COC)C(=O)O)c4Cl)c3Cl)ccc21)C(=O)O [Compound 588]
[1]
  IC50: 7.35 nM
[2]
  Internalization: 2.00%
[3]
  EC50: 154 nM

## Cc1c(-c2ccc3c(c2)OCC(=O)N3CCN[C@@H](CO)C(=O)O)cccc1-c1cccc(-c2ccc3c(c2)OCC(=O)N3CCN[C@@H](CO)C(=O)O)c1C [Compound 585]
[1]
  IC50: 10.9 nM
[2]
  Internalization: 39.00%
[3]
  EC50: 130 nM

## O=C1COc2cc(-c3cccc(-c4cccc(-c5ccc6c(c5)OCC(=O)N6C[C@@H]5C[C@@H](O)CN5)c4Cl)c3Cl)ccc2N1C[C@@H]1C[C@@H](O)CN1 [Compound 472]
[1]
  IC50: 5.27 nM
[2]
  Internalization: 17.20%
[3]
  EC50: 359 nM

## C[C@H](CN1C(=O)COc2cc(-c3cccc(-c4cccc(-c5ccc6c(c5)OCC(=O)N6C[C@@H](C)N[C@@H](CO)C(=O)O)c4Cl)c3Cl)ccc21)N[C@@H](CO)C(=O)O [Compound 563, (2S,2'S)-2,2′-(((2R,2′R)-((2,2′-dichloro-[1,1′-biphenyl]-3,3′-diyl)bis(3-oxo-2,3-dihydro-4H-benzo[b][1,4]oxazine-7,4-diyl))bis(propane-1,2-diyl))bis(azanediyl))bis(3-hydroxypropanoic acid)]
[1]
  IC50: 7.18 nM
[2]
  Internalization: 25.50%
[3]
  EC50: 37.7 nM

## C[C@H]1CC[C@@H](CN2C(=O)COc3cc(-c4cccc(-c5cccc(-c6ccc7c(c6)OCC(=O)N7C[C@@H]6CC[C@H](C)N6)c5Cl)c4Cl)ccc32)N1 [Compound 535]
[1]
  IC50: 4.41 nM
[2]
  Internalization: 21.00%
[3]
  EC50: 354 nM

## C[C@@H](CN1C(=O)COc2cc(-c3cccc(-c4cccc(-c5ccc6c(c5)OCC(=O)N6C[C@H](C)N[C@@H](CO)C(=O)O)c4Cl)c3Cl)ccc21)N[C@@H](CO)C(=O)O [Compound 550]
[1]
  IC50: 3.96 nM
[2]
  Internalization: 3.00%
[3]
  EC50: 225 nM

## O=C(O)[C@@H](CO)NCCN1C(=O)COc2cc(-c3cccc(-c4cccc(-c5ccc6c(c5)OCC(=O)N6CCN[C@H](CO)C(=O)O)c4Cl)c3Cl)ccc21 [Compound 483]
[1]
  IC50: 6.31 nM
[2]
  Internalization: 19.80%

## O=C(O)C1CCN(CCN2C(=O)COc3cc(-c4cccc(-c5cccc(-c6ccc7c(c6)OCC(=O)N7CCN6CC[C@H](O)C6)c5Cl)c4Cl)ccc32)C1 (stereo partly drawn) [Compound 481, 1-(2-(7-(2,2′-dichloro-3′-(4-(2-((S)-3-hydroxypyrrolidin-1-yl)ethyl)-3-oxo-3,4-dihydro-2H-benzo[b][1,4]oxazin-7-yl)-[1,1′-biphenyl]-3-yl)-3-oxo-2,3-dihydro-4H-benzo[b][1,4]oxazin-4-yl)ethyl)pyrrolidine-3-carboxylic acid]
[1]
  IC50: 4.69 nM
[2]
  Internalization: 8.70%

## CN(CCN1C(=O)COc2cc(-c3cccc(-c4cccc(-c5ccc6c(c5)OCC(=O)N6CCN(C)C[C@@H]5CCC(=O)N5)c4Cl)c3Cl)ccc21)C[C@@H]1CCC(=O)N1 [Compound 460]
[1]
  IC50: 9.9 nM
[2]
  Internalization: 1.90%

## O=C(O)CC(O)CNCCN1C(=O)COc2cc(-c3cccc(-c4cccc(-c5ccc6c(c5)OCC(=O)N6CCNCC(O)CC(=O)O)c4Cl)c3Cl)ccc21 (stereo not shown) [Compound 470]
[1]
  IC50: 2.28 nM
[2]
  Internalization: 20.90%

## O=C1COc2cc(-c3cccc(-c4cccc(-c5ccc6c(c5)OCC(=O)N6C[C@@H]5CC6(CC6)CN5)c4Cl)c3Cl)ccc2N1C[C@@H]1CC2(CC2)CN1 [Compound 540]
[1]
  IC50: 10.5 nM
[2]
  Internalization: 10.60%

## Cl.O=C1CC[C@@H](CN2C(=O)COc3cc(-c4cccc(-c5cccc(-c6ccc7c(c6)OCC(=O)N7C[C@@H]6CCCN6)c5Cl)c4Cl)ccc32)N1 [Compound 517]
[1]
  IC50: 7.46 nM
[2]
  Internalization: 22.80%

## C[C@H](O)[C@@H](NCCN1C(=O)COc2cc(-c3cccc(-c4cccc(-c5ccc6c(c5)OCC(=O)N6CCN[C@@H](C(=O)O)[C@H](C)O)c4Cl)c3Cl)ccc21)C(=O)O [Compound 551]
[1]
  IC50: 2.64 nM
[2]
  Internalization: 3.10%

## O=C(O)[C@@H]1C[C@@H](O)CN1CCN1C(=O)COc2cc(-c3cccc(-c4cccc(-c5ccc6c(c5)OCC(=O)N6CCN5C[C@H](O)C[C@H]5C(=O)O)c4Cl)c3Cl)ccc21 [Compound 454]
[1]
  IC50: 1.42 nM
[2]
  Internalization: 5.20%
[3]
  EC50: 326 nM

## O=C(O)CCNCCCN1C(=O)COc2cc(-c3cccc(-c4cccc(-c5ccc6c(c5)OCC(=O)N6CCCNCCC(=O)O)c4Cl)c3Cl)ccc21 [Compound 480]
[1]
  IC50: 5.48 nM
[2]
  Internalization: 5.70%
